Experimental data taken from patent US11845735B2, “Method for synthesizing (RS)-Warfarin” (priority 2021, dated 2023).

Tests used:
[1] = system: extrinsic and common coagulation pathways; assay: prothrombin time (PT) test in rats after oral feeding; type: in vivo; conditions: male rats; for International Normalized Ratio / Prothrombin Time: 5 mg/kg fed, blood collected after 24 hours, citrated plasma
Procedure: In this example, the anticoagulation effect of an exemplary (RS)-Warfarin was evaluated by an exemplary prothrombin time (PT) test. PT test may refer to an exemplary method carried out for monitoring oral anticoagulant therapy. PT test may measure the period of time it takes for a clot to form in a blood sample. In particular, PT test may measure the activity of exemplary coagulation factors involved in one or more exemplary extrinsic and common coagulation pathways. In one or more exemplary embodiments, prothrombin time may increase in response to inhibition of vitamin K-dependent procoagulant clotting factors (i.e., exemplary factors VII and X and prothrombin).
(§1) In an exemplary implementation, PT test may be accomplished in an animal model and may be compared to an exemplary commercial sample of Warfarin. In an exemplary implementation, 24 male rats were randomly separated into four groups, six rats in each group. Group I received distilled water (Control Group), Group II received an exemplary commercial Warfarin with an exemplary dose of 5 mg commercial Warfarin per weight of each rat (5 mg/kg), Group III received an exemplary synthesized (RS)-Warfarin with an exemplary dose of 5 mg (RS)-Warfarin per weight of each rat (5 mg/kg (Dose 1)), and Group IV received synthesized (RS)-Warfarin with an exemplary dose of 10 mg (RS)-Warfarin per weight of each rat (10 mg/kg (Dose 2)).
In an exemplary implementation, PT test was performed by feeding exemplary commercial Warfarin and Dose 1 of exemplary synthesized (RS)-Warfarin to Group II and Group III of rats, respectively. After 24 hours, exemplary blood samples were collected from two rats that were randomly selected from each of Group II and Group III. About 1.8 ml of each blood sample was added to exemplary tubes containing an exemplary anticoagulant, sodium citrate dihydrate. After centrifugation of each citrated blood sample at 2000 gr for 15 minutes, plasma was separated to be used for PT analysis. In an exemplary implementation, PT test may be performed by adding a mixture of thromboplastin and calcium to citrated plasma. Thromboplastin is a protein-phospholipid extract of tissue that may contain necessary phospholipids and tissue factors for promoting activation of factor X by factor VII. At the beginning of an exemplary anticoagulant therapy (e.g., Warfarin therapy), prothrombin time may reflect an exemplary depression of factor VII, because factor VII may have the shortest half-life among exemplary vitamin K-dependent factors. During an exemplary maintenance therapy, PT test may be sensitive to the decrease in prothrombin and factor X levels. PTs and international normalized ratios (INRs) were measured for Group II and Group III of rats.

[2] = clinical chemistry tests for toxicity (urea, creatinine, SGOT, SGPT, LDH) in rats; type: in vivo; conditions: 5 mg/kg (Dose 1) and 10 mg/kg (Dose 2) vs commercial Warfarin 5 mg/kg, blood after 24 hours
Procedure: as §1
In this example, toxicity of exemplary (RS)-Warfarin was assessed using one or more exemplary clinical chemistry tests, such as urea test, creatinine test, SGOT (glutamic oxaloacetic transaminase) test, SGPT (glutamate-pyruvate transaminase) test, and LDH (lactate dehydrogenase) test. In an exemplary implementation, Group II, Group III, and Group IV of rats were fed with exemplary commercial Warfarin, Dose 1 of exemplary synthesized (RS)-Warfarin, and Dose 2 of exemplary synthesized (RS)-Warfarin, respectively. […]

SMILES | anticoagulant effect in comparison to commercial Warfarin (PTs and INRs) ([1]; 5 mg/kg each, 24 hours) | International Normalized Ratio [1] | Prothrombin Time [1] [s] | urea, creatinine, SGOT, SGPT and LDH test results compared to rats fed with commercial Warfarin (FIG. 8) [2]
CC(=O)CC(c1ccccc1)c1c(O)c2ccccc2oc1=O (racemic) [Exemplary Synthesized (RS)-Warfarin, 4-hydroxy-3-(3-oxo-1-phenylbutyl)-2H-1-benzopyran-2-one] | significantly increased anticoagulant effect | 3.4 | 24.4 | may not significantly differ
CC(=O)CC(c1ccccc1)c1c(O)c2ccccc2oc1=O (stereo not drawn) [Exemplary Commercial Warfarin, Warfarin] | – | 2.19 | 18.6 | –
